Assay results: article PMC2956004 (Bioorganic & medicinal chemistry, 2010)

target: recombinant HCV NS5B (genotype 1b) NS5BCΔ21 (Hepatitis C virus genotype 1b, UniProt P26663); test: in vitro NS5B RNA dependent RNA polymerase; type: biochemical; settings: Supplementary data, Table S1

| Structure (SMILES) | NS5B inhibitory activity (in words) |
| --- | --- |
| O=C(O)CN1C(=O)CSC1=S [2-(4-oxo-2-thioxothiazolidin-3-yl)acetic acid] | either inactive or poorly active |
| CCN1C(=O)C(=Cc2ccc(Cl)cc2Cl)SC1=S [5-(2,4-dichlorobenzylidene)-3-ethyl-2-thioxothiazolidin-4-one] | either inactive or poorly active |
| O=C(O)CN1C(=O)C(=Cc2ccccc2)SC1=S [2-(5-benzylidene-4-oxo-2-thioxothiazolidin-3-yl)acetic acid] | either inactive or poorly active |
